Measured values reported in PubChem BioAssay (NCI).
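How tested: cells in 96-well plates exposed to compound for 48 hours at five concentrations. GI50 = concentration required for 50% inhibition of growth. At the TGI there is no net growth.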

Tests used:
Experiment in all cases: NCI anticancer screen, dose series, 48 h
A498 renal = system: A498 renal
SK-MEL-5 melanoma = system: SK-MEL-5 melanoma
UACC-62 melanoma = system: UACC-62 melanoma
HOP-62 NSCLC = system: HOP-62 NSCLC
SK-MEL-28 melanoma = system: SK-MEL-28 melanoma
MDA-N = system: MDA-N
U251 CNS = system: U251 CNS
PC-3 prostate = system: PC-3 prostate
CCRF-CEM leukemia = system: CCRF-CEM leukemia
IGROV1 ovarian = system: IGROV1 ovarian

## COC(=O)/C=C1/OC(c2ccccc2)=C(Cl)C1=O
A498 renal
  TGI: 68.2 µM
SK-MEL-5 melanoma
  TGI: 28.7 µM
UACC-62 melanoma
  TGI: 38.8 µM
HOP-62 NSCLC
  TGI: > 58 µM
SK-MEL-28 melanoma
  TGI: 42.5 µM
MDA-N
  TGI: 43 µM
U251 CNS
  TGI: 27.1 µM
PC-3 prostate
  TGI: 31.6 µM
CCRF-CEM leukemia
  TGI: 19.9 µM
IGROV1 ovarian
  TGI: 55.8 µM

## Cc1nc2ccccc2n1CCc1nc2ccccc2s1
A498 renal
  TGI: > 100 µM
SK-MEL-5 melanoma
  TGI: 23.6 µM
UACC-62 melanoma
  TGI: > 100 µM
HOP-62 NSCLC
  TGI: > 100 µM
SK-MEL-28 melanoma
  TGI: > 100 µM
MDA-N
  TGI: > 100 µM
U251 CNS
  TGI: > 100 µM
PC-3 prostate
  TGI: > 100 µM
CCRF-CEM leukemia
  TGI: > 100 µM
IGROV1 ovarian
  TGI: > 100 µM

## Cc1cc2ccccc2c[n+]1CC(=O)CC([O-])(C(F)(F)F)C(F)(F)F
A498 renal
  TGI: > 100 µM
SK-MEL-5 melanoma
  TGI: > 100 µM
UACC-62 melanoma
  TGI: > 100 µM
HOP-62 NSCLC
  TGI: > 100 µM
SK-MEL-28 melanoma
  TGI: > 100 µM
MDA-N
  TGI: > 100 µM
U251 CNS
  TGI: > 100 µM
PC-3 prostate
  TGI: > 100 µM
CCRF-CEM leukemia
  TGI: > 100 µM
IGROV1 ovarian
  TGI: > 100 µM

## NS(=O)(=O)c1ccc(/C=C/c2cccc(O)c2)cc1
A498 renal
  TGI: > 100 µM
SK-MEL-5 melanoma
  TGI: 48.4 µM
UACC-62 melanoma
  GI50: 18.6 µM
  TGI: 50.4 µM
HOP-62 NSCLC
  TGI: > 100 µM
SK-MEL-28 melanoma
  TGI: > 100 µM
MDA-N
  TGI: > 100 µM
U251 CNS
  GI50: 21.1 µM
  TGI: > 100 µM
PC-3 prostate
  TGI: > 100 µM
CCRF-CEM leukemia
  GI50: 16.1 µM
  TGI: > 100 µM
IGROV1 ovarian
  GI50: 30.2 µM
  TGI: > 100 µM

## C=C(Br)CN(C#N)CC(=C)Br
A498 renal
  TGI: > 100 µM
SK-MEL-5 melanoma
  TGI: > 100 µM
UACC-62 melanoma
  TGI: > 100 µM
HOP-62 NSCLC
  TGI: > 100 µM
SK-MEL-28 melanoma
  TGI: > 100 µM
MDA-N
  TGI: > 100 µM
U251 CNS
  TGI: > 100 µM
PC-3 prostate
  TGI: > 100 µM
CCRF-CEM leukemia
  TGI: > 100 µM
IGROV1 ovarian
  TGI: > 100 µM

## COC(=O)CC1C2CC3C(C2=O)C13 (centres undefined)
A498 renal
  TGI: > 100 µM
SK-MEL-5 melanoma
  TGI: > 100 µM
UACC-62 melanoma
  TGI: > 100 µM
HOP-62 NSCLC
  TGI: > 100 µM
SK-MEL-28 melanoma
  TGI: > 100 µM
MDA-N
  TGI: > 100 µM
U251 CNS
  TGI: > 100 µM
PC-3 prostate
  TGI: > 100 µM
CCRF-CEM leukemia
  TGI: > 100 µM
IGROV1 ovarian
  TGI: > 100 µM

## COc1cc2c(cc1OCCCC(=O)Nc1cc(C(=O)Nc3cc(C(=O)NCCCN(C)C)n(C)n3)n(C)n1)N=CC1CCCN1C2=O (centres undefined)
A498 renal
  TGI: 59.2 µM
SK-MEL-5 melanoma
  TGI: 30.1 µM
UACC-62 melanoma
  TGI: 57.3 µM
HOP-62 NSCLC
  TGI: 68.7 µM
SK-MEL-28 melanoma
  TGI: 30.4 µM
MDA-N
  TGI: 31.6 µM
U251 CNS
  TGI: 39.5 µM
PC-3 prostate
  TGI: 99.3 µM
CCRF-CEM leukemia
  TGI: 29.7 µM
IGROV1 ovarian
  TGI: 28.2 µM

## CCCCCC(C)C[C@H]1CO[C@H](c2ccc[nH]2)N[C@H]1C(=O)OC (some centres undefined)
A498 renal
  TGI: > 100 µM
SK-MEL-5 melanoma
  TGI: > 100 µM
UACC-62 melanoma
  TGI: > 100 µM
HOP-62 NSCLC
  TGI: > 100 µM
SK-MEL-28 melanoma
  TGI: > 100 µM
MDA-N
  TGI: > 100 µM
U251 CNS
  TGI: > 100 µM
PC-3 prostate
  TGI: > 100 µM
CCRF-CEM leukemia
  TGI: > 100 µM
IGROV1 ovarian
  TGI: > 100 µM

## CC(=O)C(=C(I)I)c1ccccc1
A498 renal
  TGI: 40.7 µM
SK-MEL-5 melanoma
  TGI: 28.5 µM
UACC-62 melanoma
  TGI: 51.4 µM
HOP-62 NSCLC
  TGI: 38.7 µM
SK-MEL-28 melanoma
  TGI: 38.7 µM
MDA-N
  TGI: 39.9 µM
U251 CNS
  TGI: 35.7 µM
PC-3 prostate
  TGI: 83.8 µM
CCRF-CEM leukemia
  TGI: 31.7 µM
IGROV1 ovarian
  TGI: 54.7 µM

## CN(C)c1ccc(C(c2ccc(N(C)C)cc2)c2ccc([N+](=O)[O-])cc2)cc1
A498 renal
  TGI: > 100 µM
SK-MEL-5 melanoma
  TGI: > 100 µM
UACC-62 melanoma
  TGI: > 100 µM
HOP-62 NSCLC
  TGI: > 100 µM
SK-MEL-28 melanoma
  TGI: > 100 µM
MDA-N
  TGI: > 100 µM
U251 CNS
  TGI: > 100 µM
PC-3 prostate
  TGI: > 100 µM
CCRF-CEM leukemia
  TGI: > 100 µM
IGROV1 ovarian
  TGI: > 100 µM

## CN(C)CCCOC(=O)C(O)(Cc1ccccc1)C1CC1 (centres undefined)
A498 renal
  TGI: > 100 µM
SK-MEL-5 melanoma
  TGI: > 100 µM
UACC-62 melanoma
  TGI: > 100 µM
HOP-62 NSCLC
  TGI: > 100 µM
SK-MEL-28 melanoma
  TGI: > 100 µM
MDA-N
  TGI: > 100 µM
U251 CNS
  TGI: > 100 µM
PC-3 prostate
  TGI: > 100 µM
CCRF-CEM leukemia
  TGI: > 100 µM
IGROV1 ovarian
  TGI: > 100 µM

## CCN(CC)C(=O)CCCCCCCCC1CO1 (centres undefined)
A498 renal
  TGI: > 100 µM
SK-MEL-5 melanoma
  TGI: > 100 µM
UACC-62 melanoma
  TGI: > 100 µM
HOP-62 NSCLC
  TGI: > 100 µM
SK-MEL-28 melanoma
  TGI: > 100 µM
MDA-N
  TGI: > 100 µM
U251 CNS
  TGI: > 100 µM
PC-3 prostate
  TGI: > 100 µM
CCRF-CEM leukemia
  TGI: > 100 µM
IGROV1 ovarian
  TGI: > 100 µM

## COc1ccc(-c2cn3c(n2)sc2cc(C)ccc23)cc1
A498 renal
  TGI: 47.4 µM
SK-MEL-5 melanoma
  TGI: 14.3 µM
UACC-62 melanoma
  TGI: 41.9 µM
HOP-62 NSCLC
  TGI: 81.3 µM
SK-MEL-28 melanoma
  TGI: > 100 µM
MDA-N
  TGI: 58.4 µM
U251 CNS
  TGI: 21.8 µM
PC-3 prostate
  TGI: 50.9 µM
CCRF-CEM leukemia
  TGI: > 100 µM
IGROV1 ovarian
  TGI: 42.1 µM

## O=C(c1cccs1)N(C(=O)N1CCC(c2ccccc2)CC1)c1ccccc1
A498 renal
  TGI: > 100 µM
SK-MEL-5 melanoma
  TGI: 38.8 µM
UACC-62 melanoma
  TGI: > 100 µM
HOP-62 NSCLC
  TGI: 98.3 µM
SK-MEL-28 melanoma
  TGI: > 100 µM
MDA-N
  TGI: > 100 µM
U251 CNS
  TGI: > 100 µM
PC-3 prostate
  TGI: > 100 µM
CCRF-CEM leukemia
  TGI: > 100 µM
IGROV1 ovarian
  TGI: > 100 µM

## COC1CCC(OC2CC(C3(C)CCC4(CC(O)C(C)C(C(C)/C=C(\C)C(=O)C(C)CC(C)C(=O)O)O4)O3)OC3(OC(C4OC(O)(CO)C(C)CC4C)CC3C)C2C)OC1C (centres undefined)
A498 renal
  TGI: 0.336 µM
SK-MEL-5 melanoma
  TGI: 0.464 µM
UACC-62 melanoma
  TGI: 0.298 µM
HOP-62 NSCLC
  TGI: 2.87 µM
SK-MEL-28 melanoma
  TGI: 0.189 µM
MDA-N
  TGI: 0.549 µM
U251 CNS
  TGI: 0.817 µM
PC-3 prostate
  TGI: 3.14 µM
CCRF-CEM leukemia
  TGI: 0.509 µM
IGROV1 ovarian
  TGI: 16.2 µM

## COc1ccc(CN=CN/C(C#N)=C(\N)C#N)cc1OC
A498 renal
  TGI: > 100 µM
SK-MEL-5 melanoma
  TGI: > 100 µM
UACC-62 melanoma
  TGI: > 100 µM
HOP-62 NSCLC
  TGI: > 100 µM
SK-MEL-28 melanoma
  TGI: > 100 µM
MDA-N
  TGI: > 100 µM
U251 CNS
  TGI: > 100 µM
PC-3 prostate
  TGI: > 100 µM
CCRF-CEM leukemia
  TGI: > 100 µM
IGROV1 ovarian
  TGI: > 100 µM

## CC1=Nn2c(nc3sc4c(c3c2=O)CCCC4)SC1
A498 renal
  TGI: > 100 µM
SK-MEL-5 melanoma
  TGI: > 100 µM
UACC-62 melanoma
  TGI: > 100 µM
HOP-62 NSCLC
  TGI: > 100 µM
SK-MEL-28 melanoma
  TGI: > 100 µM
MDA-N
  TGI: > 31.6 µM
U251 CNS
  TGI: > 100 µM
PC-3 prostate
  TGI: > 100 µM
CCRF-CEM leukemia
  TGI: > 76.3 µM
IGROV1 ovarian
  TGI: > 100 µM
